Data from patent US20170065952A1, “PICKERING EMULSION FORMULATIONS” (THE UNIVERSITY OF BIRMINGHAM, priority 2014, published 2017).

How the values were obtained:
[1] = Release of lipophilic active B (DMP) from O/W emulsion by dialysis into external water, UV-Vis; type: physicochemical; settings: O/W emulsion (tripalmitin particles 2J, WPI), after 2 days of storage
Method: Solid lipid particles were prepared according to Example 2J. Tripalmitin matrix contained lipophilic active A (Sudan III) and were stabilised in aqueous dispersion by WPI.
O/W emulsions were prepared according to Example 4. A model lipophilic active B (DMP-dimethyl phthalate) was added to the sunflower oil included phase.
Known quantity of the O/W emulsion (e.g. 10 g) was placed inside a pre-hydrated cellulose tube and dialysed to a known quantity of distilled water (e.g. 100 g), termed “external” water/aqueous phase. An aliquot (ca. 1 mL) of the external water was taken at time intervals, pressed through a syringe filter (0.2 μm pore size) and analysed using UV-Vis spectroscopy (at λ=290 nm). Using previously obtained calibration line and the partitioning (sunflower oil/water) data of DMP, the concentration of the released active B was calculated.

[2] = Method: Known quantity of the W/O emulsion (e.g. 45 g) was gently placed on the top of a known quantity of distilled water (e.g. 70 g) termed “external” water/aqueous phase. Calibrated conductivity probe was placed in the external aqueous phase and readings were taken on daily intervals.
(§1) Solid lipid particles were prepared according to Example 2C. Tripalmitin particles contained the lipophilic active (Sudan III) and were stabilised in the aqueous dispersion by Tween™ 20. After preparation the excess surfactant was dialysed off to distilled water.
W/O emulsions were prepared according to Example 3C, 3D and 3E. Hydrophilic active (NaCl) was added to the aqueous included phase and sunflower or silicone or mineral oils were used as the continuous phase.
The release of NaCl was measured as per Example 5.

[3] = Release of lipophilic active (Sudan III) from W/O emulsion into external oil phase, UV-Vis; type: physicochemical; settings: W/O emulsion Example 3C (tripalmitin particles 2C, Tween 20, sunflower oil continuous phase); burst release
Method: as §1

[4] = Release of lipophilic active A (Sudan III) from O/W emulsion into external oil phase, UV-Vis; type: physicochemical; settings: O/W emulsion (tripalmitin particles 2J, WPI, sunflower oil), observation period of 4 days
Method: Known quantity of the O/W emulsion (e.g. 40 g) was placed in the beaker and gently topped up with a known quantity of sunflower oil (e.g. 50 g), termed “external” oil phase. An aliquot (ca. 1 mL) of the external oil phase was taken at time intervals, pressed through a syringe filter (0.2 μm pore size) and analysed using UV-Vis spectroscopy (at λ=510 nm). Using previously obtained calibration line, the concentration of the released active A was calculated.

For `COC(=O)c1ccccc1C(=O)OC` [DMP, dimethyl phthalate], the “release of active B from the dispersed sunflower oil phase” value [1] was 100%.
In the case of `[Cl-].[Na+]` [NaCl], the “release of hydrophilic active to external water phase” value ([2]; W/O emulsion Example 3C, sunflower oil, over 17 days) is reported as “very small”, the “release of hydrophilic active upon heating” value ([2]; W/O emulsion, heating to 40° C., fat crystals at interface melt) is reported as “all dispersed water phase with NaCl is delivered to the external water phase” and the “release of the internal water phase with NaCl” value ([2]; water-in-mineral-oil emulsions (Example 3D), partially sintered particles) is reported as “lower than for the non-sintered silicone oil emulsions and higher than the sintered sunflower oil emulsions”. The “release of NaCl to external water phase” value ([2]; water-in-silicone-oil emulsions (Example 3E), non-sintered particles) was “Relatively high release”.
For `Oc1ccc2ccccc2c1N=Nc1ccc(N=Nc2ccccc2)cc1` [Sudan III], the “time of storage to complete release of lipophilic active” value [3] was ≤ 10 h and the “release of active A from the lipid particles” value [4] was “below 1%”.
